The values below come from US10703798B2, “Methods of cancer therapy by inhibiting fusion polypeptides comprising fibroblast growth factor receptor 2 (FGFR2) and vinculin (VCL)” (DEBIOPHARM INTERNATIONAL SA, priority 2014, dated 2020).

“Also recorded” adds a separate entry of the source. Like-named read-outs stand apart in the source and are kept apart here.

Data set [1] concerns FGFR2-VCL expressing Rat2 cells. Put plainly: Cell proliferation assay using Cell Titer Glo, FGFR2-VCL expressing cells. It counts as cell-based, rat. Conditions: 72 h with inhibitor, cellular ATP content (Cell Titer Glo), read-out: Relative IC50. The procedure: (§1) Stable Rat2 cell pools stably expressing FGFR2-CCDC147 or FGFR2-VCL fusions, respectively, were generated using pExoIN2-based expression plasmids ExoIN2-FGFR2_CCDC147 and pExoIN2-FGFR2_VCL. pExoIN2 was obtained from Trenzyme, (Germany). The latter expression plasmids were introduced into Rat2 cells by electroporation (LONZA Nucleofector II Device/program [X-005], Solution R). 24 h post-transduction, cells were subjected to 1.5 µg/mL puromycin to derive stable expressor cell pools. The FGFR2-CCDC147 sequence used in this example was composed of SEQ ID NO: 16 for the FGFR2 part (nucleic acid 1 to nucleic acid 2574) and SEQ ID NO: 20 for the CCDC147 part (nucleic acid 156 to nucleic acid 3313). The FGFR2-VCL sequence used was composed of SEQ ID NO: 16 for the FGFR2 part (nucleic acid 1 to nucleic acid 2574) and SEQ ID NO: 18 for the VCL part (nucleic acid 2117 to nucleic acid 5482).
(§2) Rat2 cells obtained as per Example 4 (either parental cells or cells expressing FGFR2-VCL or FGFR2-CCDC147 fusion polypeptide) were used in this assay. Cells were seeded in 96 well plates and cultured for 24 h before addition of FGFR inhibitors (the same as in section (1) above). After 72 h of further incubation, cell growth was analyzed by determination of the cellular ATP content (Cell Titer Glo; Promega) using a luminescence plate reader.

In data set [2] the test system is FGFR2-CCDC147 expressing Rat2 cells. Kind of data set: Cell proliferation assay using Cell Titer Glo, FGFR2-CCDC147 expressing cells. It counts as cell-based, rat. Conditions: 72 h with inhibitor, cellular ATP content (Cell Titer Glo), read-out: Relative IC50. The protocol:
as §1, §2

Data set [3] relates to Rat2 parental cells. Conditions: read-out: Relative IC50, 72 h with inhibitor, cellular ATP content (Cell Titer Glo). The procedure:
as §1, §2
(ATP-based viability assays read luminescence as a measure of living cells.)

Data set [4] has as its system FGFR2-CCDC147 expressing Rat2 cells. Kind of data set: Cell proliferation assay using FACS, FGFR2-CCDC147 expressing cells. It counts as cell-based, rat. Conditions: 72 h with inhibitor, cells counted by FACS, read-out: Relative IC50. The protocol:
(§3) At the end of the incubation period, cells were counted by FACS. IC50 values were calculated in Graphpad Prism 6 using sigmoidal response (variable slope) curve fit.

The next data set relates to Rat2-FGFR2-VCL tumor. Put plainly: In vivo sensitivity, subcutaneously implanted Rat2-FGFR2-VCL tumor model. Details: species or system female NMRI nude mice. The protocol: On Day 0, 1×10^6 FGFR2-VCL expressing Rat2 cells in 100 μl PBS were subcutaneously implanted into the left flank of 5-6 week-old female NMRI nude mice (group size of 6 animals).
Primary tumor sizes were measured twice weekly by calipering. Animals were terminated on last day of treatment and tumors weighed at necropsy.

The test system of data set [5] is FGFR2-VCL expressing Rat2 cells. Kind of data set: Cell proliferation assay using FACS, FGFR2-VCL expressing cells. It counts as cell-based, rat. Conditions: 72 h with inhibitor, cells counted by FACS, read-out: Relative IC50. The protocol: as §3
Data set [6] relates to Rat2 parental cells. Kind of data set: Cell proliferation assay using FACS, parental cells. It counts as cell-based, rat. Conditions: 72 h with inhibitor, cells counted by FACS, read-out: Relative IC50. The procedure:
as §1

The next data set deals with Rat2-FGFR2-CCDC147 tumor. Put plainly: In vivo sensitivity, subcutaneously implanted Rat2-FGFR2-CCDC147 tumor model. Also on record: species or system female NMRI nude mice. Conditions: 30 and 60 mg/kg orally once daily for 14 consecutive days. The procedure: On Day 0, 5×10^6 FGFR2-CCDC147-expressing Rat2 cells in 100 μl PBS were subcutaneously implanted into the left flank of 5-6 week-old female NMRI nude mice (group size of 6 animals). […] Primary tumor sizes were measured twice weekly by calipering. Animals were terminated on last day of treatment and tumors weighed at necropsy.

For data set [7], the target named is T1, FGFR2-CCDC147 fusion polypeptide (Homo sapiens, UniProt P21802).
T1 construct: CCDC147 (CFAP58) polypeptide part (fusion partner, same polypeptide); expressed in transfected cells; host or cells: HEK293T; the other entry of the earlier key: CFAP58 (Q5T655, Cilia- and flagella-associated protein 58)
Put plainly: Autophosphorylation of FGFR2-CCDC147 in transiently transfected HEK293T cells, sandwich phosphotyrosine ELISA. The class given is cell-based. Conditions: FGFR2-CCDC147-expressing HEK293T cells, 1E-05 M, 90 min. The text has this: (§4) In this example, the following sequences were used: the FGFR2-CCDC147 fusion gene was composed of SEQ ID NO: 16 for the FGFR2 part (nucleic acid 1 to nucleic acid 2574) and SEQ ID NO: 20 for the CCDC147 part (nucleic acid 156 to nucleic acid 3313); and the FGFR2-VCL fusion gene was composed of SEQ ID NO: 16 for the FGFR2 part (nucleic acid 1 to nucleic acid 2574) and SEQ ID NO: 18 for the VCL part (nucleic acid 2117 to nucleic acid 5482).
(§5) After treatment, autophosphorylation of the FGFR2 fusion polypeptides was analysed using a sandwich phosphotyrosine ELISA. Each condition was done in duplicates.

Data set [8] deals with T2, FGFR2-VCL fusion polypeptide (Homo sapiens, UniProt P21802).
T2 construct: VCL polypeptide part (fusion partner, same polypeptide); expressed in transfected cells; host or cells: HEK293T; the other entry of the earlier key: VCL (P18206, Vinculin)
Kind of data set: Autophosphorylation of FGFR2-VCL in transiently transfected HEK293T cells, Western blot. It counts as cell-based. Conditions: FGFR2-VCL-expressing HEK293T cells, 1E-05 M, 90 min.
Text: as §4
(§6) HEK293T cells were transiently transfected with expression plasmids containing either an FGFR2-VCL or an FGFR2-CCDC147 fusion gene, which genes had been supplemented with a C-terminal double myc-tag extension. As a negative control, HEK293T cells were mock-transfected. […] The expression of myc-tagged fusion polypeptide was determined using the anti-myc antibody 9E10 (α-myc), and the phosphorylation analysis was performed with the anti-phospho-tyrosine antibody pY99 (α-pY).
(In general: Immunoblotting shows a protein as a band on a membrane.)

For data set [9], the target named is T2, FGFR2-VCL fusion polypeptide. Put plainly: Autophosphorylation of FGFR2-VCL in transiently transfected HEK293T cells, sandwich phosphotyrosine ELISA. The class given is cell-based. To be noted: FGFR2-VCL-expressing HEK293T cells, 1E-05 M, 90 min.
Text: as §4, §5
(ELISA stands for enzyme-linked immunosorbent assay.)

Data set [10] addresses T1, FGFR2-CCDC147 fusion polypeptide. Kind of data set: Autophosphorylation of FGFR2-CCDC147 in transiently transfected HEK293T cells, Western blot. The class given is cell-based. To be noted: FGFR2-CCDC147-expressing HEK293T cells, 1E-05 M, 90 min.
Text: as §4, §6

T1 sequence (P21802 with tags, fused parts or gaps): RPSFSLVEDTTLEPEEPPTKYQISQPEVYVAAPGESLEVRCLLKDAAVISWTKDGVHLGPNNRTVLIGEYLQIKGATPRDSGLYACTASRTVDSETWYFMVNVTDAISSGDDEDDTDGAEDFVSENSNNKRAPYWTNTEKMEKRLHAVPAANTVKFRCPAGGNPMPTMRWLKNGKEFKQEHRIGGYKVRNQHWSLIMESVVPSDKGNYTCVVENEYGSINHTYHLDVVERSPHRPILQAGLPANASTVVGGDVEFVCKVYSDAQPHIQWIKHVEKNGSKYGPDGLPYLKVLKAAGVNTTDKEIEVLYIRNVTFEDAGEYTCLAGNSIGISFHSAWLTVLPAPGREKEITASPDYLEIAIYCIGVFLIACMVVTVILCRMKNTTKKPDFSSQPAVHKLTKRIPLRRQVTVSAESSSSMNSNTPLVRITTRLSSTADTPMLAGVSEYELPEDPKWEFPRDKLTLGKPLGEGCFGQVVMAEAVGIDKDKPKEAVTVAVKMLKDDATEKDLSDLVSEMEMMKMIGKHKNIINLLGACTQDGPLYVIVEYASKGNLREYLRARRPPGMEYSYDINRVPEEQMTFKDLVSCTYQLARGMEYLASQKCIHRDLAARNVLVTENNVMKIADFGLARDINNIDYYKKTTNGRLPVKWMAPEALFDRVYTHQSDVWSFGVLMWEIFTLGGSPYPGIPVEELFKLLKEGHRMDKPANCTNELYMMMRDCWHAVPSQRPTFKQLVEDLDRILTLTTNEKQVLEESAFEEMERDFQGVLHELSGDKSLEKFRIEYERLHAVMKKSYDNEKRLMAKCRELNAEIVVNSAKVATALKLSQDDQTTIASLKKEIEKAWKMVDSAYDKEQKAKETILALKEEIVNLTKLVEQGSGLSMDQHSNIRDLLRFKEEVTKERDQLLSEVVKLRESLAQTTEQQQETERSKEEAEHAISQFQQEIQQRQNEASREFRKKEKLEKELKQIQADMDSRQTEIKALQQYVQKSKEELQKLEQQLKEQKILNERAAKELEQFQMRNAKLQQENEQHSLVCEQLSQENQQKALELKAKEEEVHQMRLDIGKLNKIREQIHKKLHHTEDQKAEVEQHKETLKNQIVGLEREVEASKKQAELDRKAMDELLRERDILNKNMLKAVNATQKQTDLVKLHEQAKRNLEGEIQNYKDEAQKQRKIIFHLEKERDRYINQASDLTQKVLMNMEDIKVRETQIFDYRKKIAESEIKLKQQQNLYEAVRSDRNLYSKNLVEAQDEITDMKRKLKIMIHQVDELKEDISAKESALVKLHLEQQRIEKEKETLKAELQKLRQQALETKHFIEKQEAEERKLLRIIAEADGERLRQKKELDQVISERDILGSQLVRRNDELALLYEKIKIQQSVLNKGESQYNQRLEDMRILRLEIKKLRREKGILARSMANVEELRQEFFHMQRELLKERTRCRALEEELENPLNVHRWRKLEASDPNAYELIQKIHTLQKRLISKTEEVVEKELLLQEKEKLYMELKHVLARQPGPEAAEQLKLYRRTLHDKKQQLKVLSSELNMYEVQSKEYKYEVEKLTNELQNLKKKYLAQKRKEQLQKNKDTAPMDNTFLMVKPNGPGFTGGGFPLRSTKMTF
T2 sequence (P21802 with tags, fused parts or gaps): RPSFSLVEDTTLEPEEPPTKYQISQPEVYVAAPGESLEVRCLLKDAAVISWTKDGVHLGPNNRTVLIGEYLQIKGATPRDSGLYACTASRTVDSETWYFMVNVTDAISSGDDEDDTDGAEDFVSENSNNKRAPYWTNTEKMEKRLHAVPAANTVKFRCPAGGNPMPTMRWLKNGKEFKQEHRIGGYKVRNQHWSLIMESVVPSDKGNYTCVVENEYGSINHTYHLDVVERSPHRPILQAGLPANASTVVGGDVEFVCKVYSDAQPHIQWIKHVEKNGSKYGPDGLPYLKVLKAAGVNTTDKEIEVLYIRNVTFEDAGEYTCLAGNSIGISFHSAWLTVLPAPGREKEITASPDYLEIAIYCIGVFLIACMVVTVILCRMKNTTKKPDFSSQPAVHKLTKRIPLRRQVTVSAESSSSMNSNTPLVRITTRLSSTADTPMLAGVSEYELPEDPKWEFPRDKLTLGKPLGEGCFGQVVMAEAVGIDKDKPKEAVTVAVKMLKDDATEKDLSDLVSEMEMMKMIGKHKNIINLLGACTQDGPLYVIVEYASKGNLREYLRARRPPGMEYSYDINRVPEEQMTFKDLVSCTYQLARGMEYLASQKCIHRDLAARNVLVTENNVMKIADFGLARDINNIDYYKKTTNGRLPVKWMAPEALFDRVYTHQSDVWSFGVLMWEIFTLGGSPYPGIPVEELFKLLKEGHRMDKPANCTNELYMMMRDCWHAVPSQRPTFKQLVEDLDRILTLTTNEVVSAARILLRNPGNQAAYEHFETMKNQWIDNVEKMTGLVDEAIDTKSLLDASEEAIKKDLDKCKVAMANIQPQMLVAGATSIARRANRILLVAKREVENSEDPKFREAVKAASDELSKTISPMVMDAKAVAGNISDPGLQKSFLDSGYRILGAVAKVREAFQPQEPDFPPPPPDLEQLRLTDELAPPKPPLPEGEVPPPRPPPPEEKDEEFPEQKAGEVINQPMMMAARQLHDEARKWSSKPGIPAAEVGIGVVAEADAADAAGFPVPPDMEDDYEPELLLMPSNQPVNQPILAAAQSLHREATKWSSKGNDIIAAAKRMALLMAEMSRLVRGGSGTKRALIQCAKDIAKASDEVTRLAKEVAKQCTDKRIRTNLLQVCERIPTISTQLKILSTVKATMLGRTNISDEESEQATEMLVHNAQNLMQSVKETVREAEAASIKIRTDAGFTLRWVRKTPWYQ

With `Cc1nc2cc(-n3ncc(C(=O)c4cc5ccccc5[nH]4)c3N)ccc2[nH]1` [Compound A], the IC50 in data set [1] was 0.53 nM; in [2] it was 73.4 nM; in the data set with Rat2 parental cells [3], greater than 3000 nM; in data set [4] it was 14.7 nM; in [5] it was 227 nM; in the data set with Rat2 parental cells [6] it was greater than 1020 nM. Moreover, the “antitumor efficacy (tumor growth)” value in the data set with Rat2-FGFR2-VCL tumor (60 mg/kg-treated group, orally once daily for 14 consecutive days) was “Tumor stasis”; with Rat2-FGFR2-VCL tumor (30 and 60 mg/kg orally once daily for 14 consecutive days, established tumors), “inhibited tumor growth; also recorded: highly significant and dose-dependent antitumoral efficacy”; in the data set on Rat2-FGFR2-CCDC147 tumor (established tumors) it was “inhibited tumor growth; also recorded: highly significant antitumoral efficacy”. Besides, the entries for the “effect on body weight” value with Rat2-FGFR2-VCL tumor (30 or 60 mg/kg orally once daily for 14 consecutive days) and in the data set with Rat2-FGFR2-CCDC147 tumor were “without significantly affecting body weight” and “no significant effect”, respectively.

Turning to `COC(=O)c1ccc2c(c1)NC(=O)/C2=C(\Nc1ccc(N(C)C(=O)CN2CCN(C)CC2)cc1)c1ccccc1` [Vargatef], the “levels of FGFR phosphorylation (phosphotyrosine ELISA)” value in [7] and in data set [9] was “decreased” in each case. In addition, the “autophosphorylation of fusion polypeptide (anti-phospho-tyrosine Western blot)” value in data set [8] was “substantially reduced”; in data set [10] it was “somewhat more marginally”.

As usually defined, the IC50 is the concentration at which inhibition is half-maximal.
